Consider two compounds from ChEMBL document CHEMBL1154885, “Heat shock protein 90: inhibitors in clinical trials” (J Med Chem, 2010).

Data set [1] deals with Heat shock protein HSP 90-beta (Homo sapiens, UniProt P08238).
Description: Inhibition of HSP90-mediated client protein HER2 degradation
Data set [2] is described as follows: Half life in plasma of mouse bearing human MM1S cells at 50 mg/kg. The format is ADME, organism-based. On the set-up: dose 50 mg/kg.
Data set [3] in a line: Half life in tumor of mouse bearing human MM1S cells at 50 mg/kg. Details: dose 50 mg/kg. The format is ADME, organism-based, Neoplasm.

Chain of Heat shock protein HSP 90-beta (P08238 whole entry): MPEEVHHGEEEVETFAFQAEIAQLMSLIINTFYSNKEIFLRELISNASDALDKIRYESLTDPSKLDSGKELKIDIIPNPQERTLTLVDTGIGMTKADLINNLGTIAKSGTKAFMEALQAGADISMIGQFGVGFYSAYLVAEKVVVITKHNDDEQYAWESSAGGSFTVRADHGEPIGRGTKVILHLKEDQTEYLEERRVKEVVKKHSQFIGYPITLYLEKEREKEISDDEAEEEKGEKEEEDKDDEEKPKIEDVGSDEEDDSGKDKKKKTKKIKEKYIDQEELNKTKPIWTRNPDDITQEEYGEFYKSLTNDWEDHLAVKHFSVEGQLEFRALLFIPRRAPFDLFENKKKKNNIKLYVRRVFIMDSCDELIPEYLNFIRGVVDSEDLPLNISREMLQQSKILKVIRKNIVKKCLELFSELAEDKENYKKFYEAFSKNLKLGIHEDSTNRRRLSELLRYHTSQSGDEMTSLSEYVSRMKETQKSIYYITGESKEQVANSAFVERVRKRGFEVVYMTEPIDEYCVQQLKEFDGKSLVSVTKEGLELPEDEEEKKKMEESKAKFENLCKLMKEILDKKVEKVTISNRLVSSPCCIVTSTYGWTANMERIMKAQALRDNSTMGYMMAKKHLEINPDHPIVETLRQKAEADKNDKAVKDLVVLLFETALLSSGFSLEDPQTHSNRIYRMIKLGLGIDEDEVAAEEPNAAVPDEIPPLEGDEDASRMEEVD

`CCCCn1c(Cc2ccc(OC)c(OC)c2OC)nc2c(N)ncnc21` displayed an Activity in data set [1] of 40 µM.
Turning to `CC1(C)CC(=O)c2c(C(F)(F)F)nn(-c3ccc(C(N)=O)c(N[C@H]4CC[C@H](O)CC4)c3)c2C1` [SNX-2112], the half-life (as a rule, the time in which the quantity being followed falls by half) in data set [2] is 3 h; in data set [3] it was 10 h.
